Assay: Solubility of N-fluorocinchonidinium tetrafluoroborate in solvents
Format: physicochemical
Conditions: acetonitrile
Description: ^19F NMR (282 MHz, CD3CN/CCl3F): 37.71 (s, 1F); −154.52 (s, 1F); −154.60 (s, 3F). (CD3CN/TFA): 118.35 (s, 1F); −74.12 (s, 1F); −74.17 (s, 3F). FTIR: (ν N—F) 927 cm^−1 Melting point: 189+/−2° C. […] MS (FAB^+, glycerol) 313 (cation^+, 18%) 295 (cation-H2O, 100) . TLC: acetone/heptane: 9/1; Rf=0.3.

C=CC1C[N+]2(F)CCC1CC2C(O)c1ccnc2ccccc12.F[B-](F)(F)F (stereo not shown) [N-fluorocinchonidinium Tetrafluoroborate]
Solubility: ca. 200 mg/ml

— patent US20050075501A1, “Ammonium compounds bearing and electrophilic fluorine, reagent containing same, method using same and synthesis method for obtaining them” (priority 2000, published 2005)
